Target: T1, USP25 (USP25-His6, Boston Biochem E-546) (Homo sapiens, UniProt Q9UHP3)
T1 construct: His6; purchased Boston Biochem E-546
T1 sequence (Q9UHP3 1-1055): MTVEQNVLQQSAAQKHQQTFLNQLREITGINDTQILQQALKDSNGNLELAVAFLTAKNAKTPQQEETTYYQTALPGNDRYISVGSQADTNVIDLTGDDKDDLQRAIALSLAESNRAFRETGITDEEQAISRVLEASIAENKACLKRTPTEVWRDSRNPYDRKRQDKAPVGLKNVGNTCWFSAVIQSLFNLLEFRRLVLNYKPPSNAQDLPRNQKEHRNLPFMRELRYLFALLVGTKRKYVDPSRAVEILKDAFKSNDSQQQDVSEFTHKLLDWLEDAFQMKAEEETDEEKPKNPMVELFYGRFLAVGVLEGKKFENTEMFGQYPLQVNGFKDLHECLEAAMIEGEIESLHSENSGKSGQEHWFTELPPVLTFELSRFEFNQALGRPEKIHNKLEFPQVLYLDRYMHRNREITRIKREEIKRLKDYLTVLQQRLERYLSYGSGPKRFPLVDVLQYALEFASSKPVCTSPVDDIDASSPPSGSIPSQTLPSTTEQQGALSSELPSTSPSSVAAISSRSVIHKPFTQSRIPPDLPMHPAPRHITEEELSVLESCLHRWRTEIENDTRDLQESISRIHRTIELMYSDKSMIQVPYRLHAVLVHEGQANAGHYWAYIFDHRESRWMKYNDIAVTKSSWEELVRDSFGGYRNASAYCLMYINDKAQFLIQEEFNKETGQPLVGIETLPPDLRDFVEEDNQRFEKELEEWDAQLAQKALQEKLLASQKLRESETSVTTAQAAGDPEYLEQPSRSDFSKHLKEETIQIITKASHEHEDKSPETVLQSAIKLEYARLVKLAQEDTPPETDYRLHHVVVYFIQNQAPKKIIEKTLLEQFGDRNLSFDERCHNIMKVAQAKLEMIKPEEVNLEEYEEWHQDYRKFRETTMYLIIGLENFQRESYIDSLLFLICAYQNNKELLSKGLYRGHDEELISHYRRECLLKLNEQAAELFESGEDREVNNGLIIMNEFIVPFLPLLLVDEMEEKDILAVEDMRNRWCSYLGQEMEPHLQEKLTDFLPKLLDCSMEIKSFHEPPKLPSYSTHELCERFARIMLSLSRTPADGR
Assay: Ubiquitin-Rhodamine 110 Assay for USP25 Activity, Example A-2
Type: biochemical
Conditions: Ubiquitin-Rhodamine 110 assay, Example A-2; read-out: USP25 A-2 IC50 range
Outline: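 Fluorescence (ex 485, em 535 nm) of cleaved ubiquitin-rhodamine 110 (25 nM, below Km) gave IC50 via 4-parameter logistic fit. Reaction: 45 min, room temperature, citric acid stop, after 30 min compound preincubation with 75 pM USP25-His6 in 20 mM Tris pH 8.0, 3 mM BME, 0.03% BGG, 0.01% Triton X-100; top dose 25 μM.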

SMILES	IC50 [nM]
Cc1cc(C(F)F)c2c(N)c(C(=O)N[C@H]3COc4cc(N5CC6CNCC(C5)O6)ccc4C3)sc2n1 [Example 88, N-((3R)-7-(9-oxa-3,7-diazabicyclo[3.3.1]nonan-3-yl)chroman-3-yl)-3-amino-4-(difluoromethyl)-6-methylthieno[2,3-b]pyridine-2-carboxamide]	1 to 50
O=C(N[C@H]1COc2c(F)c(N3CC4CCC(C3)N4)cc(F)c2C1)c1cnc2c(c1)[C@@H]1C[C@@H]1CN2 [Example 89, (1aS, 7bR)-N-((3R)-7-(3 8-diazabicyclo[3.2.1]octan-3-yl)-5,8-difluorochroman-3-yl)-1a,2,3,7b-tetrahydro-1H-cyclopropa[c][1,8]naphthyridine-6-carboxamide]	50 to 200
O=C(N[C@H]1COc2c(F)c(N3CC4CCC(C3)N4)cc(F)c2C1)c1cnc2c(c1)[C@H]1C[C@H]1CN2 [Example 90, (1aR,7bS)-N-((3R)-7-(3,8-diazabicyclo[3.2.1]octan-3-yl)-5,8-difluorochroman-3-yl)-1a,2,3,7b-tetrahydro-1H-cyclopropa[c][1,8]naphthyridine-6-carboxamide]	200 to 2000
CO[C@@H]1CN(c2ccc3c(c2F)OC[C@H](NC(=O)c2sc4nc(C)ccc4c2N)C3)C[C@H]1N [Example 91, 3-amino-N-[(3R )-7-[(3R,4R)-3-amino-4-methoxypyrrolidin-1-yl]-8-fluoro-3,4-dihydro-2H-1-benzopyran-3-yl]-6-methylthieno[2,3-b]pyridine-2-carboxamide]	200 to 2000
CO[C@H]1CN(c2ccc3c(c2F)OC[C@H](NC(=O)c2sc4nc(C)ccc4c2N)C3)C[C@@H]1N [Example 92, 3-amino-N-[(3R)-7-[(3S,4S)-3-amino-4-methoxypyrrolidin-1-yl]-8-fluoro-3,4-dihydro-2H-1-benzopyran-3-yl]-6-methylthieno[2,3-b]pyridine-2-carboxamide]	200 to 2000
CO[C@@H]1CN(c2cc3c(cc2F)C[C@@H](NC(=O)c2sc4nc(C)ccc4c2N)CO3)C[C@H]1N [Example 93, 3-amino-N-[(3R)-7-[(3R,4R)-3-amino-4-methoxypyrrolidin-1-yl]-6-fluoro-3,4-dihydro-2H-1-benzopyran-3-yl]-6-methylthieno[2,3-b]pyridine-2-carboxamide]	200 to 2000
